In brackets after ≈: the same amount, converted by molar mass. Non-standard residues stand in square brackets, D forms with d. Residues, ends and D or L forms follow the SMILES beside them. Nle = CCCC[C@H](N)C(=O)O
Assays:
[1] = in vivo; cited from earlier work
Method: Fluconazole is water-soluble, safe for patients even at a high daily dose ([…]), can be applied either intravenously or orally, and has a beneficial pharmacokinetic profile and broad spectrum of activity.

[2] = test system: Hs27 cells (human foreskin fibroblast cell line); test: MTT cytotoxicity assay
Method: (§1) The assessment of antifungal potential of synthesized agents was carried out using four reference strains (C. albicans ATCC 10231, C. albicans SC5314, C. glabrata DSM […] and C. krusei DSM […]) and six clinical isolates of fluconazole-resistant C. albicans that were provided by the Hospital of Medical University of Gdansk, Poland. Moreover, four C. albicans isolates, assigned as B3, B4, Gu4 and Gu5, were used for investigation whether the synthesized fluconazole derivatives were effectively removed from the yeast cells by the drug efflux transporters, as in the case of fluconazole. These strains were kindly provided by Prof. Joachim Morschhäuser from University of Würzburg (Würzburg, Germany). Strains Gu4 and B3 were fluconazole-sensitive isolates obtained from early infection episodes, while Gu5 and B4 were the corresponding fluconazole-resistant isolates obtained from later episodes in the same patients treated with fluconazole. The lack of susceptibility of the Gu5 strain to fluconazole was a consequence of overexpression of CDR1/2 genes encoding ABC transporters, whereas the resistance of B4 strain was caused by overexpression of the MDR1 gene encoding a membrane transport protein of the major facilitator superfamily (MFS). All of these Candida spp. strains were maintained on YPD agar plates (1% (w/v) yeast extract, 2% (w/v) peptone, 2% (w/v) glucose, 2% (w/v) agar) at 30 °C for 16–24 h. For all of the assays aimed at assessing the antifungal potential of the synthesized agents, the yeasts were cultivated at 37 °C in RPMI 1640 medium (with L-glutamine, without sodium bicarbonate, Sigma-Aldrich, Darmstadt, Germany)) buffered to a pH of 7.0 with 0.165 M morpholinepropanesulfonic acid (MOPS) buffer (Sigma-Aldrich). In this study, we used the human foreskin fibroblast cell line Hs27 (ATCC CRL 1634TM) and the human endothelial cell line HUVEC (C2519A), purchased from Lonza Group AG, (Basel, Switzerland). The Hs27 cells were maintained in cell media consisting of Dulbecco’s modified Eagles medium (DMEM), (Corning, Arizona, USA) with 10% fetal bovine serum (FBS), (Corning, Port Elizabeth, South Africa), 1% penicillin/streptomycin (Sigma-Aldrich Inc., Darmstadt, Germany), and 1% L-glutamine (Corning, Arizona, USA). The human endothelial cell line was maintained in cell media consisting of Endothelial Cell Growth Medium-2 Single Quots Kit (Lonza, USA). Both cell lines were cultured in an incubator at 37 °C and 5% CO2.
(§2) Hs27 and HUVEC mammalian cell lines were cultured as mentioned above. Once cell lines were about 80% confluent, cells were counted by a hemacytometer (Hausser Scientific, Horsham, PA, USA) and plated in 96-well microtiter plates at concentrations of 4500 cells per well for Hs27 and 2000 cells per well for HUVEC. Cells were allowed to attach overnight. […] The final concentration of DMSO was ensured to be around 1% in all experiments. Cells were incubated with studied compounds for 72 h at 37 °C and 5% CO2. After incubation, 20 µL of MTT solution in PBS (4 mg/mL) was added to all wells and incubated further for 3 h at 37 °C. Formed formazan crystals were dissolved in 150 µL DMSO, and absorbance was measured using an Asys UVM340 multi-well plate reader at λ = 540 nm. Cytotoxicity was determined compared to drug-free control. All experiments were performed in biological triplicates.

MTT cytotoxicity assay [3] = conditions: human, Hs27 cells (human foreskin fibroblast cell line)
Method: as §1, §2

MTT cytotoxicity assay [4] = conditions: human
Method: as §1, §2

[5] = test system: HUVEC cells (human umbilical venous endothelial primary cells); test: MTT cytotoxicity assay
Method: as §1, §2

C. albicans SC5314 [6] = test: Membrane permeabilization assay by propidium iodide uptake (flow cytometry, fluorescence microscopy); assay type: cell-based, Candida albicans
Method: Suspensions of C. albicans SC5314 were prepared by taking one loop of pure culture growth from 24 h YPD agar plates into RPMI 1640 medium and adjusting optical density to 0.1 at 660 nm wavelength. […] The cell suspensions were then treated for 0.5, 2, 4, 6, and 24 h at 37 °C with continuous agitation (180 rpm). The cells were then centrifuged and resuspended in 200 µL of PBS buffer (pH 7.4). Subsequently, cells were treated with propidium iodide (1 mg/mL, final concentration) and incubated for 30 min at room temperature in the dark. Cellular fluorescence was visualized using lens 20×, using Olympus Fluorescence Microscope BX60 (Olympus, Tokyo, Japan). The images were also post-processed utilizing cell Sens program. The fluorescence intensity emitted by DNA-bound propidium iodide was measured using a flow cytometer (Merck Millipore guava easyCyte 8, Darmstadt, Germany). Data were obtained from at least two independent experiments.

Candida albicans 48 = test: microbe, parasite or virus in culture; conditions: Candida albicans, 48, 24 h, pH 7
Method: as §1
(§3) Antifungal activity of the tested compounds against yeast cells was determined in 96-well plates as described in the CLSI document M27-A3 [39], with minor modifications (CLSI, 2008). […] The plates were incubated for 24 h at 37 °C. Each test was performed in triplicate. The final concentration of DMSO was ensured to be around 1% in all experiments.
(§4) For determination of minimum fungicidal concentrations (MFC), small aliquots of suspensions (around 10 μL) from each well were transferred using the pipette to YPD agar plates without inhibitors and incubated for 24 h at 37 °C.

Candida albicans Gu4 = test: microbe, parasite or virus in culture; conditions: Candida albicans, GU4, 24 h, pH 7
Method: as §1, §3, §4

Candida albicans B4 = test: microbe, parasite or virus in culture; conditions: Candida albicans, B4, 24 h, pH 7
Method: as §1, §3, §4

[7] = test system: Candida albicans ATCC 10231; test: microbe, parasite or virus in culture; conditions: Candida albicans, ATCC10231, 24 h, pH 7
Method: as §1, §3, §4

Candida albicans B3 = test: microbe, parasite or virus in culture; conditions: Candida albicans, B3, 24 h, pH 7
Method: as §1, §3, §4

[8] = test system: Candida glabrata DSM 6128; test: microbe, parasite or virus in culture; conditions: Nakaseomyces glabratus, DSM6128, 24 h, pH 7
Method: as §1, §3, §4

Candida albicans 138 = test: microbe, parasite or virus in culture; conditions: Candida albicans, 138, 24 h, pH 7
Method: as §1, §3, §4

Candida albicans SC 5314 = test: microbe, parasite or virus in culture; conditions: Candida albicans, SC5314, 24 h, pH 7
Method: as §1, §3, §4

Candida albicans 574 = test: microbe, parasite or virus in culture; conditions: Candida albicans, 574, 24 h, pH 7
Method: as §1, §3, §4

Candida krusei DSM 11226 = test: microbe, parasite or virus in culture; conditions: Pichia kudriavzevii, DSM11226, 24 h, pH 7
Method: as §1, §3, §4

Candida albicans 190 = test: microbe, parasite or virus in culture; conditions: Candida albicans, 190, 24 h, pH 7
Method: as §1, §3, §4

Candida albicans 247 = test: microbe, parasite or virus in culture; conditions: Candida albicans, 247, 24 h, pH 7
Method: as §1, §3, §4

Candida albicans 604 = test: microbe, parasite or virus in culture; conditions: Candida albicans, 604, 24 h, pH 7
Method: as §1, §3, §4

Candida albicans Gu5 = test: microbe, parasite or virus in culture; conditions: Candida albicans, GU5, 24 h, pH 7
Method: as §1, §3, §4

C. albicans ATCC 10231 = conditions: C. albicans ATCC 10231, RPMI-1640, 200 – 0.4 μg/mL range
Method: (§5) The selective activities of the FLC-conjugates were calculated according to the following formula
(§6) (1 picture or pasted object on this page, not shown here)

C. krusei DSM 6128 = conditions: C. krusei DSM 6128, RPMI-1640, 200 – 0.4 μg/mL range
Method: as §5, §6

C. glabrata DSM 11226 = conditions: C. glabrata DSM 11226, RPMI-1640, 200 – 0.4 μg/mL range
Method: as §5, §6

[9] = test system: C. albicans opt1-opt5Δptr2Δptr22Δ; conditions: RPMI-1640, 200 – 0.4 μg/mL range
Method: as §5, §6

C. albicans SC5314 [10] = conditions: C. albicans SC5314, RPMI-1640, 200 – 0.4 μg/mL range
Method: as §5, §6

C. tropicalis (clinical) = conditions: RPMI-1640, 200 – 0.4 μg/mL range
Method: as §5, §6

C. parapsilosis DSM 5784 = conditions: C. parapsilosis DSM 5784, RPMI-1640, 200 – 0.4 μg/mL range
Method: as §5, §6

Compound: OC(Cn1cncn1)(Cn1cncn1)c1ccc(F)cc1F [FLC, fluconazole]
- incidence rate of azole-induced liver injury [1]: 1%
- In vitro cytotoxicity IC90 ± SEM [2]: >100 µM
- IC50 at 72 h (MTT cytotoxicity assay [3]): > 100 µM
- IC50 at 72 h (MTT cytotoxicity assay [4]): > 100 µM
- In vitro cytotoxicity IC90 ± SEM [5]: >100 µM
- cell membrane disruption (PI uptake), in words (C. albicans SC5314 [6]; C. albicans SC5314, 8 × MIC (62 µM), 4 or 6 h): No symptoms of cell membrane disruption
- Dead (%), PI uptake by flow cytometry (C. albicans SC5314 [6]; SC5314, 4 h): 2,50%
- Live (%), PI uptake by flow cytometry (C. albicans SC5314 [6]; SC5314, 4 h): 97,5%
- Dead (%), PI uptake by flow cytometry (C. albicans SC5314 [6]; SC5314, 6 h): 2,83%
- Live (%), PI uptake by flow cytometry (C. albicans SC5314 [6]; SC5314, 6 h): 97,2%
- MIC90 (Candida albicans 48): > 250 µM
- MIC90 (Candida albicans Gu4): 31 µM (≈ 9.49 µg/mL)
- MIC90 (Candida albicans B4): 62 µM (≈ 19 µg/mL)
- MIC50 [7]: < 8 µM
- MIC90 [7]: < 8 µM
- MIC90 (Candida albicans B3): 15 µM (≈ 4.59 µg/mL)
- MIC50 [8]: 62 µM (≈ 19 µg/mL)
- MIC90 [8]: 250 µM (≈ 76.6 µg/mL)
- MIC90 (Candida albicans 138): > 250 µM
- MIC50 (Candida albicans SC 5314): < 8 µM
- MIC90 (Candida albicans SC 5314): < 8 µM
- MIC90 (Candida albicans 574): > 250 µM
- MIC50 (Candida krusei DSM 11226): 70 µM (≈ 21.4 µg/mL)
- MIC90 (Candida krusei DSM 11226): 125 µM (≈ 38.3 µg/mL)
- MIC90 (Candida albicans 190): > 250 µM
- MIC90 (Candida albicans 247): > 250 µM
- MIC90 (Candida albicans 604): > 250 µM
- MIC90 (Candida albicans Gu5): > 250 µM

Compound: CC[C@H](C)[C@H](NC(=O)[C@H](CCCCN)NC(=O)[C@H](CCCCN)NC(=O)[C@H](C)NC(=O)[C@H](CC(C)C)NC(=O)[C@H](C)NC(=O)[C@H](C)NC(=O)[C@H](CC(C)C)NC(=O)[C@H](C)NC(=O)[C@H](CCCCN)NC(=O)[C@H](CC(C)C)NC(=O)[C@H](CC(N)=O)NC(=O)[C@@H](NC(=O)[C@H](CCCCN)NC(=O)CNC(=O)[C@H](CC(C)C)NC(=O)[C@H](CC(C)C)NC(=O)[C@H](Cc1ccc(O)cc1)NC(=O)CNC(=O)[C@H](C)N)[C@@H](C)CC)C(=O)N[C@@H](CC(C)C)C(N)=O [TP10-NH2]
- MIC50 (C. albicans ATCC 10231): 200 µg/mL (≈ 91.7 µM)
- MIC90 (C. albicans ATCC 10231): 200 µg/mL (≈ 91.7 µM)
- MIC50 (C. krusei DSM 6128): 50 µg/mL (≈ 22.9 µM)
- MIC90 (C. krusei DSM 6128): 50 µg/mL (≈ 22.9 µM)
- MIC50 (C. glabrata DSM 11226): 200 µg/mL (≈ 91.7 µM)
- MIC90 (C. glabrata DSM 11226): 200 µg/mL (≈ 91.7 µM)
- MIC50 [9]: 25 µg/mL (≈ 11.5 µM)
- MIC90 [9]: 25 µg/mL (≈ 11.5 µM)
- MIC50 (C. albicans SC5314 [10]): 50 µg/mL (≈ 22.9 µM)
- MIC90 (C. albicans SC5314 [10]): 50 µg/mL (≈ 22.9 µM)

Compound: CCCC[C@H](NC(=O)[C@H](CCCNC(=N)N)NC(=O)[C@H](Cc1c[nH]c2ccccc12)NC(=O)[C@H](CCC(N)=O)NC(=O)[C@H](Cc1c[nH]c2ccccc12)NC(=O)[C@H](CCCNC(=N)N)NC(=O)[C@H](CCCNC(=N)N)NC(=O)[C@H](CS)NC(=O)[C@H](CCCCN)NC(=O)[C@H](Cc1ccccc1)NC(=O)[C@@H](N)CCCC)C(=O)N[C@@H](CCCCN)C(=O)N[C@@H](CCCCN)C(=O)N[C@@H](CC(C)C)C(=O)NCC(N)=O [LFacinB[Nle^1,11]-NH2] (H-[Nle]FKCRRWQWR[Nle]KKLG-NH2; N-terminus assumed)
- MIC50 (C. albicans ATCC 10231): > 100 µg/mL
- MIC90 (C. albicans ATCC 10231): > 100 µg/mL
- MIC50 (C. krusei DSM 6128): 100 µg/mL (≈ 49.6 µM)
- MIC90 (C. krusei DSM 6128): 100 µg/mL (≈ 49.6 µM)
- MIC50 (C. tropicalis (clinical)): 50 µg/mL (≈ 24.8 µM)
- MIC90 (C. tropicalis (clinical)): > 100 µg/mL
- MIC50 (C. glabrata DSM 11226): > 100 µg/mL
- MIC90 (C. glabrata DSM 11226): > 100 µg/mL
- MIC50 (C. parapsilosis DSM 5784): > 100 µg/mL
- MIC90 (C. parapsilosis DSM 5784): > 100 µg/mL

Reference: publication PMC9026428, “New Peptide Based Fluconazole Conjugates with Expanded Molecular Targets” (Pharmaceutics, 2022)
